Measurements taken from patent publication US20100076037A1, “Methods of Treating Neuropathic Pain with Agonists of PPAR-gamma” (priority 2006, published 2010).
Read-outs that look alike come from different tables or passages of the source.

Assays:
[1] = test system: Sprague-Dawley rats; settings: 20 mg/kg/day for 2 weeks, cited from earlier work
[2] = test system: 3T3 L1 adipocytes; settings: cited from earlier work
[3] = test system: male Sprague Dawley rats; settings: 20 mg/kg/day; cited from earlier work
[4] = test system: rats; settings: cited from earlier work
[5] = target: PPAR δ (Homo sapiens, UniProt Q03181); settings: cited from earlier work
[6] = test system: Male Sprague-Dawley rats; test: mechanical allodynia induced by spinal nerve ligation (SNL) in rats, von Frey; assay type: in vivo, rat; settings: 20 mg/kg PO, post-SNL day 16, vs. vehicle
Experimental: Male Sprague-Dawley rats (Hsd:Sprague-Dawley®SD®, Harlan, Indianapolis, Ind., U.S.A.) weighing 223±2 g on Day14 were housed three per cage. Animals had free access to food and water and were maintained on a 12:12 h light/dark schedule for the entire duration of the study. The animal colony was maintained at 21° C. and 60% humidity. All experiments were conducted in accordance with the International Association for the Study of Pain guidelines and were approved by the University of Minnesota Animal Care and Use Committee.
The Spinal Nerve Ligation (SNL) model was used to induce chronic neuropathic pain. […]
Baseline, post-injury and post-treatment values for non-noxious mechanical sensitivity were evaluated using 8 Semmes-Weinstein filaments (Stoelting, Wood Dale, Ill., USA) with varying stiffness (0.4, 0.7, 1.2, 2.0, 3.6, 5.5, 8.5, and 15 g) according to the up-down method. […] The mean and standard error of the mean (SEM) were determined for each paw in each treatment group. […]
Statistical analyses were conducted using Prism™ 4.01 (GraphPad, San Diego, Calif., USA). Mechanical hypersensitivity of the injured paw was determined by comparing pre-SNL to post-SNL values at Day14. Data were analyzed using the Wilcoxon test. […] Drug effect was analyzed by comparing post-vehicle and post-drug values using the Friedman test followed by a Dunn's post hoc test.

[7] = test system: patients with type II diabetes; settings: cited from earlier work
[8] = cited from earlier work
[9] = test system: male db/db mice; settings: 5 mg/kg bid for 14 days; cited from earlier work
[10] = test system: Zucker diabetic fatty (ZDF) rats; settings: cited from earlier work
[11] = test system: conscious rats; settings: 2 mg/ml at 0.4 ml/h for 2 h bid for 4 days; cited from earlier work

Sequence of PPAR δ (Q03181 whole entry, species assumed): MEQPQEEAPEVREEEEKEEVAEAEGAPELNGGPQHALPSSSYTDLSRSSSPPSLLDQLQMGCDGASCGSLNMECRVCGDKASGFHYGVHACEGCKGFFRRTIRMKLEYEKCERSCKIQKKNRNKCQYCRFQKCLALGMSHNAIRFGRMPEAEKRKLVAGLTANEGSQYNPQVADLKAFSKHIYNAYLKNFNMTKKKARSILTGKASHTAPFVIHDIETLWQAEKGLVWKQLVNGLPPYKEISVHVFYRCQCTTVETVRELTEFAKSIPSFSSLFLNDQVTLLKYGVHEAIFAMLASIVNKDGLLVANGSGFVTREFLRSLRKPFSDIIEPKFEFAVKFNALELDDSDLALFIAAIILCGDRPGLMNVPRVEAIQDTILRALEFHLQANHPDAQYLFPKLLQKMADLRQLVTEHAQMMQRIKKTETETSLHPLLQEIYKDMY

Compound: Cc1oc(-c2ccccc2)nc1CCOc1ccc(C[C@H](Nc2ccccc2C(=O)c2ccccc2)C(=O)O)cc1 [farglitazar]
- serum VEGF ([1]; high-fat diet): significantly suppressed
- postprandial serum insulin [1]: normalized
- basal VEGF secretion [2]: modestly increased
- elevation of ENaC α subunit mRNA in kidney medulla [3]: 32%
- elevation of PPARgamma mRNA in kidney medulla [3]: 31%
- elevation of glucocorticoid receptor mRNA in kidney medulla [3]: 13%
- plasma volume [3]: rapid onset of plasma volume expansion
- vasodilator NO levels ([4]; 8 mg/kg bid po): Increased
- systemic vascular pressure and arterial pressure ([4]; diabetic rats, 8 mg/kg bid, 10 days): decreased
- activity at PPAR δ [5]: inactive
- mechanical allodynia [6]: significantly (p<0.05 vs. vehicle, Dunn's post hoc test) reduced
- blood pressure ([7]; 5 and 10 mg/day, hypertensive type II diabetic patients): significantly lowered
- glucose, insulin and triglycerides ([7]; 14-day trial, 35 patients): significant reductions
- AUC ([8]; 0.5 mg po): 44 ng·h/mL
- Cmax ([8]; 0.5 mg po): 20 ng/mL
- Half-life (t1/2) ([8]; 0.5 mg po): 3 h
- AUC ([8]; 1.5 mg po): 111 ng·h/mL
- Cmax ([8]; 1.5 mg po): 48 ng/mL
- Half-life (t1/2) ([8]; 1.5 mg po): 3.9 h
- AUC ([8]; 5 mg po): 355 ng·h/mL
- Cmax ([8]; 5 mg po): 168 ng/mL
- Half-life (t1/2) ([8]; 5 mg po): 4.9 h
- AUC ([8]; 15 mg po): 963 ng·h/mL
- Cmax ([8]; 15 mg po): 378 ng/mL
- Half-life (t1/2) ([8]; 15 mg po): 4.9 h
- AUC ([8]; 40 mg po): 2636 ng·h/mL
- Cmax ([8]; 40 mg po): 1173 ng/mL
- Half-life (t1/2) ([8]; 40 mg po): 5.3 h
- tolerability ([8]; single oral doses): well tolerated
- non-fasted glucose and insulin [9]: significant decrease
- rats that maintained normal fed glucose levels throughout the 24-week study ([10]; 3 mg/kg/day, start at 6 weeks): 12 of 13
- rats that maintained fed plasma glucose levels ([10]; 3 mg/kg/day, start at 10 weeks): 0 of 10
- levels of non-esterified fatty acids ([10]; rat, in vivo): dose-dependently reduced
- mean arterial blood pressure [11]: fall
